A word on the pKa: it is the negative logarithm of the acid dissociation constant.

Where two headings read alike, the source gives them in different places.

Here are results for eleven molecules from patent US20230340149A1, “METHODS OF TREATMENT OF INFLAMMATORY BOWEL DISEASES” (INSERM (INSTITUT NATIONAL DE LA SANTÉ ET DE LA RECHERCHE …, priority 2020, published 2023).

The conditions of data set [1]: highly basic guanidine; cited from earlier work.
For data set [2] the following is noted: in vivo, cited from earlier work.
Data set [3] relates to thrombin activity in human colonic tissues from CD patients. The data set is described as follows: In situ zymography of thrombin activity on frozen colonic tissue sections. It is filed as biochemical. Particulars: CD patient colonic cryo-sections, 10 μM, data not shown.
The test system of data set [4] is TNBS-induced colitis in rats. The data set is described as follows: TNBS-induced colitis in rats, daily intracolonic treatment. The class given is in vivo, rat. Particulars: vs vehicle.
The conditions of data set [5]: cited from earlier work.
The subject of the next data set is cytochrome P450 enzymes. The conditions noted are these: cited from earlier work.
In a further data set the test system is IBD patients. The conditions noted are these: in vivo; cited from earlier work.
The test system of data set [6] is adherent-invasive Escherichia coli (strain LF82) biofilms. Briefly: Adhesion and invasion of bacteria from thrombin-exposed E. coli LF82 biofilms on Caco2 monolayers. It is filed as cell-based. The method, then: Panel B) Biofilms of adherent-invasive Escherichia coli (strain LF82) were formed into the Calgary Biofilm Device (Innovotech, Canada). After 48 hours of incubation (37° C., anaerobic environment), biofilms were exposed to various concentrations of human thrombin (0, 10, 100 to 1000 milliunit/ml). After 24 hours, dispersed bacteria from thrombin-treated biofilms were collected and apically exposed to human epithelial monolayers on 12-wells plates (Caco2, ATCC HB37). Bacterial adhesion to epithelial surface was assessed. Briefly, after 90 minutes of co-culture, cells were vigorously washed in PBS, and lyzed in Triton X100 0.1% for 10 minutes, after which live cell bacteria were counted on Columbia blood agar (CFU were counted after 24 hours incubation of plates at 37° C.). Data represent fold change CFU/ml count compared to untreated controls (=1). ANOVA with Fisher's LSD test, *P<0.05
Panel C) Mucosa-associated microbiota was extracted from 3 healthy human colon biopsies (collected in Toulouse Hospital under ethic approval CODECOH Colic-DC2015-2443), under anaerobic condition, and were seeded into the Calgary Biofilm Device (Innovotech, Canada) to develop a multispecies biofilm. After 48 hours of incubation (37° C., anaerobic environment), biofilms were exposed to human thrombin (0 and 100 milliunit/ml). […] Bacterial invasion into epithelial cells was assessed. […]

Data set [7] deals with human mucosa-associated microbiota biofilms. Briefly: Adhesion of bacteria dispersed from thrombin-exposed human mucosal biofilms to Caco2 monolayers. The class given is cell-based. Particulars: biofilms exposed to 1 U/ml. Here is the method:
Methods for FIG. 7. Panel A: Mucosa-associated microbiota was extracted from 4 healthy human colon biopsies (collected in Toulouse Hospital under ethic approval CODECOH Colic-DC2015-2443), under anaerobic condition, and were seeded into the Calgary Biofilm Device (Innovotech, Canada) to develop a multispecies biofilm. After 48 hours of incubation (37° C., anaerobic environment), biofilms were exposed to various concentrations of human thrombin (0, 10, 100 and 1000 milliunit/ml). After 24 hours, dispersed bacteria from thrombin-treated biofilms were collected and apically exposed to human epithelial monolayers on 12-wells plates (Caco2, ATCC HB37). Bacterial adhesion to epithelial surface was assessed. Briefly, after 90 minutes of co-culture, cells were vigorously washed in PBS, and lyzed in Triton X100 0.1% for 10 minutes, after which live cell bacteria were counted on Columbia blood agar (CFU were counted after 24 hours incubation of plates at 37° C.). Data represent fold change CFU/ml count compared to untreated controls (=1). ANOVA with Fisher's LSD test, *P<0.05, ***P<0.001.

A further data set concerns mouse colon. The data set is described as follows: Daily intracolonic administration of thrombin in mice, inflammation parameters. The class given is in vivo. Here is the method: Thrombin (specific activity 2000 NIH units/mg protein, T6884, Sigma) was administered daily for 10-days intracolonically daily (5 U/mouse in 50 μl in saline, 0.9% NaCl) under light anaesthesia (3% isoflurane) in PAR-1^−/−, PAR4^−/−, littermates and in mice purchased from Janvier laboratories. Controls received heat-inactivated thrombin (same dose, 10 minutes at 100° C.) or saline alone. After intracolonic instillation, mice were kept upside-down for 2-min to allow colonic diffusion of the administered solution. After 10-days, mice were sacrificed by cervical dislocation and inflammation parameters were measured.
TNBS colitis was induced in fasted rats as previously described^20,21. Animals were housed in ventilated cages, acclimatized for one week before experiment started and beddings were mixed twice. Briefly, TNBS was prepared at a final concentration of 120 mg/ml in 50% ethanol in saline and was kept in the dark before use. A catheter was inserted at 8 cm from the anus and 30 mg of the TNBS solution was instilled through the catheter into the lumen in a final volume of 250 μl/rat. For TNBS colitis induction in mice, fasted animals were lightly anesthetized with halothane. A polyethylene catheter was inserted intracolonically 4 cm from the anus and TNBS (2 mg/mouse in 100 μl) dissolved in a solution of saline plus 40% ethanol was pushed into the catheter. At time of the sacrifice, colonic tissues were harvested. Before opening the colon, luminal washes with a PBS solution were performed in order to measure thrombin activity in those washes. Colons were then cut opened. Macroscopic damage scores were evaluated as previously described^9, by a skilled observer unaware of the treatments. When observed, the following parameters were given score of 1: hemorrhage, edema, stricture, ulceration, fecal blood, mucus, and diarrhea. Erythema was scored a maximum of 2 depending on the length of the area being affected (0, absent; 1, less than 1 cm; and 2, more than 1 cm). Adhesion was scored based on its severity (0, absent; 1, moderate; and 2, severe). Colon thickness was measured using an electronic caliper (Mitutoyo, Mississauga, Canada, resolution 0.01 mm). MPO activity was measured as an index of granulocyte infiltration as previously described. Tissue samples were homogenized in a solution of 0.5% hexadecyltrimethylammonium bromide dissolved in phosphate buffer solution (pH 6.0) for 1 min. Homogenized tissues were centrifuged at 13 000 g for 2 min. Supernatants were added to a buffer supplemented with 1% hydrogen peroxide, and O-dianisidine dihydrochloride solution. Optical density readings were taken for 1 min at 30 s intervals at 450 nm^22. Results were normalized to total protein content and expressed as OD450 nm/min/μg/ml. For bacterial translocation assays, mesenteric lymph nodes were collected aseptically, weighed and homogenized before being plated at 37° C. in Columbia blood agar (BD Biosciences) for 24 h for aerobes, and for 48 h for anaerobes left in anaerobic jars^9. For permeability assays, mice received orally 4-kDa FITC Dextran (Sigma Aldrich) at the dose of 600 mg/kg body weight in PBS, and blood was collected 1-h after. Fluorescence for FITC-Dextran presence in serum was measured by spectrophotometry (excitation 485 nm, emission 528 nm)^23. Apoptosis was measured by TUNEL (terminal deoxynucleotidyl transferase dUTP nick end labeling) staining in mouse colonic tissues as previously described^24,25. Five random fields were captured per tissue section and percent of apoptotic cells was determined by an observer unaware of the treatments.

The mark [8] stands for this setting: HAT 1, 2, 3 studies, HIT, versus historical controls.
Where [9] appears, read: 50 μl of 100 U/ml per mouse daily for 10 days, vs vehicle (saline).

Turning to `CC1CNc2c(cccc2S(=O)(=O)N[C@@H](CCCNC(=N)N)C(=O)N2CC[C@@H](C)C[C@@H]2C(=O)O)C1` (some centres unmarked) [Argatroban], the pKa in data set [1] is given as 13. Besides, the plasma half-life entry in data set [2] was “approximately 45 minutes”.

As to `[H]/N=C(/N)c1ccc(NCc2nc3cc(C(=O)N(CCC(=O)O)c4ccccn4)ccc3n2C)cc1` [Dabigatran], the “thrombin activity detected in tissue (VPR-AMC substrate)” value in data set [3] is “inhibited”. In [2], the “oral availability / oral activity” value is “not orally active”. Also, in data set [4] (100 μl 5 μM), the MPO activity result is recorded as “reducing significantly”, the colon thickness entry was “reducing significantly”, the macroscopic damage score entry was “reducing significantly” and the weight loss entry was “reducing significantly”. Moreover, the “blood in the feces (fecal bleeding score)” value in [4] was “reduced significantly”.

Regarding `CCOC(=O)CN[C@@H](C(=O)N1CC[C@H]1C(=O)NCc1ccc(/C(N)=N\O)cc1)C1CCCCC1` [Ximelagatran], in data set [5] (treatment for over 35 days), the hepatic toxicity result is on record as “linked with the risk of hepatic toxicity”.

For the molecule `CCCCCCOC(=O)NC(=N)c1ccc(NCc2nc3cc(C(=O)N(CCC(=O)OCC)c4ccccn4)ccc3n2C)cc1` [dabigatran etexilate], in the data set with cytochrome P450 enzymes, the “interaction with cytochrome P450 enzymes” value is “lacks interaction”. Also, in [2], the “eliminated by the kidneys” value is listed as more than 80% and the plasma half-life entry is listed as “approximately 12 hours”. Moreover, in data set [5] (long-term treatment), the hepatic toxicity result is given as “has not been linked with hepatic toxicity”.

On to `N=C(N)c1ccc(CNC(=O)[C@@H]2CCN2C(=O)[C@H](NCC(=O)O)C2CCCCC2)cc1` [melagatran], for which, in [2], the “oral availability / oral activity” value is on record as “poorly orally available”.

As for bivalirudin, the “excreted by the kidneys” value in [2] is listed as “about 20%”. Also, in data set [5] (acute coronary syndrome), the “rate of bleeding compared to heparin” value is listed as “lower rate of bleeding”.

For the molecule desirudin, in data set [5] (in vivo), the “bleeding rates versus heparin” value is listed as “similar” and the “rate of proximal deep vein thrombosis” value was “reduced”. Further, the “prevention of VTE” value in [5] (versus enoxaparin or unfractionated heparin) is on record as “superior”.

Regarding heparin, the “benefit of treatment in IBD patients” value in the data set on IBD patients is listed as “some benefits”.

For the molecule hirudin, in [2], the “distributed in the extravascular compartment” value is 80% and the “found in the plasma” value is 20%. In addition, the “incidence of bleeding compared with heparin” value in [5] (meta-analysis of 11 randomized trials, acute coronary syndrome) is recorded as “significantly higher incidence of bleeding”.

In the case of lepirudin, in data set [5] (setting [8]), the “risk for major bleeding” value is listed as “increased” and the “risk of new thrombosis” value was “decreased”.

For the molecule thrombin, the “adhesion to human intestinal epithelium monolayers” value in data set [6] (biofilms exposed to 0.01 U/ml) is on record as “adhered significantly more”. Further, in data set [6] (biofilms exposed to 0.1 U/ml), the “ability to invade human intestinal epithelium monolayers” value is on record as “significantly increased”. Further, in data set [7], the “potential to adhere to human intestinal epithelium monolayers” value is on record as “increased”. For the same molecule, in the data set with mouse colon (50 μl of 100 U/ml per mouse daily for 10 days), the “translocation of aerobic bacteria into mesenteric lymph nodes” value is recorded as “caused the translocation”. Also, in the data set with mouse colon (setting [9]), the colon thickness result was “significant increase” and the macroscopic damage entry is “caused macroscopic damage”. Also, the “damage score, wall thickness and MPO activity” value in the data set with mouse colon (PAR4-deficient mice) is reported as “significantly reduced”. The “macroscopic damage, colonic wall thickness and MPO activity” value in the data set on mouse colon (PAR-1-deficient mice) was “still exhibited significant”. The “translocation of anaerobic bacteria” value with mouse colon (vs vehicle or boiled thrombin) is on record as “not significantly different”.
